Measurements taken from paper PMC12314110, “Evaluation of Potential Effects of CYP3A Inhibition and CYP3A Induction on the Pharmacokinetics of Fruquintinib in Healthy Subjects” (Clinical Pharmacology in Drug Development, 2025).

Assays:
[1] = parameters: method as in PMID 28730290; settings: mass balance study, major circulating metabolite; cited from earlier work
P‐gp = settings: no reference given; cited from earlier work
[2] = Safety assessments (adverse events) in healthy subjects; format: in vivo, human; settings: Part A, fruquintinib 5 mg alone or with itraconazole, healthy subjects
Description: Safety was assessed by evaluation of adverse events (AEs), serious AEs, AEs of special interest, physical examinations, vital signs, single 12‐lead electrocardiograms and cardiac monitoring, and clinical laboratory data. All AEs were coded using the Medical Dictionary for Regulatory Activities Version 23.0, and their severity was graded using the National Cancer Institute Common Terminology Criteria for Adverse Events Version 5.0.

| SMILES | share of total radioactivity exposure in plasma [1] | P‐gp substrate (P‐gp) | adverse events [2] |
| --- | --- | --- | --- |
| COc1cc2ncnc(Oc3ccc4c(C(N)=O)c(C)oc4c3)c2cc1OC [M11] | approximately 17% |  |  |
| CNC(=O)c1c(C)oc2cc(Oc3ncnc4cc(OC)c(OC)cc34)ccc12 [Fruquintinib] |  | not a P‐gp substrate | no AEs reported |
